According to the supplement of paper PMC10307832:

Assays:
Experiment in all cases: relative viability (nuclei count vs DMSO), 5 days (fraction); higher = more cells survive
[1] = compound: CC(C)N(CCCNC(=O)Nc1ccc(C(C)(C)C)cc1)C[C@H]1O[C@@H](n2ccc3c(N)ncnc32)[C@H](O)[C@@H]1O + CCNC(=O)c1noc(-c2cc(C(C)C)c(O)cc2O)c1-c1ccc(CN2CCOCC2)cc1 [Luminespib] (partner 0.01 µM)
Procedure, shortened: (§1)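 Each reported value is a median over duplicate plates. It expresses relative viability: treated-well nuclei count divided by vehicle-well nuclei count. Lung cancer cell lines in 1536-well plates were dosed by pin tool a day after seeding, alone with one drug or with a fixed anchor-drug dose plus five library-drug doses (not always all listed) in √10 steps, and nuclei were counted after 5 days.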

[2] = compound: CC(C)N(CCCNC(=O)Nc1ccc(C(C)(C)C)cc1)C[C@H]1O[C@@H](n2ccc3c(N)ncnc32)[C@H](O)[C@@H]1O + C[C@]1(O)C[C@@H](c2nc(-c3ccc4ccc(-c5ccccc5)nc4c3)c3c(N)nccn32)C1 [Linsitinib] (partner 1 µM)
Procedure, shortened: as §1

[3] = compound: CC(C)N(CCCNC(=O)Nc1ccc(C(C)(C)C)cc1)C[C@H]1O[C@@H](n2ccc3c(N)ncnc32)[C@H](O)[C@@H]1O + O=C(c1cc(Cc2n[nH]c(=O)c3ccccc23)ccc1F)N1CCN(C(=O)C2CC2)CC1 [Olaparib] (partner 8 µM)
Procedure, shortened: as §1

[4] = compound: CC(C)=CC[C@@H](O)C1=CC(=O)c2c(O)ccc(O)c2C1=O [Shikonin] + O=C(CCCCCCC(=O)Nc1ccccc1)NO [Vorinostat] (partner 1 µM)
Procedure, shortened: as §1

Cell Line | relative viability ([1]; first compound 0.08 µM) | relative viability ([1]; first compound 0.253 µM) | relative viability ([1]; first compound 0.8 µM) | relative viability ([1]; first compound 2.53 µM) | relative viability ([1]; first compound 8 µM) | relative viability ([2]; first compound 0.08 µM) | relative viability ([2]; first compound 0.253 µM) | relative viability ([2]; first compound 0.8 µM) | relative viability ([2]; first compound 2.53 µM) | relative viability ([2]; first compound 8 µM) | relative viability ([3]; first compound 0.08 µM) | relative viability ([3]; first compound 0.253 µM) | relative viability ([3]; first compound 0.8 µM) | relative viability ([3]; first compound 2.53 µM) | relative viability ([3]; first compound 8 µM) | relative viability ([4]; first compound 0.01 µM) | relative viability ([4]; first compound 0.1 µM) | relative viability ([4]; first compound 0.3162 µM) | relative viability ([4]; first compound 1 µM)
LC-2-ad | 0.935 | 0.973 | 1.07 | 0.893 | 1.03 | 0.886 | 0.856 | 0.818 | 0.79 | 0.824 | 0.67 | 0.717 | 0.715 | 0.699 | 0.626 | 0.696 | 0.759 | 0.739 | 0.678
CAL-12T | 0.733 | 0.365 | 0.512 | 0.465 | 0.423 | 0.788 | 0.772 | 0.809 | 0.89 | 0.739 | 0.735 | 0.775 | 0.702 | 0.698 | 0.723 | 0.842 | 0.802 | 0.832 | 0.583
SW 1573 | 0.348 |  | 0.356 | 0.172 | 0.194 | 0.603 | 0.872 | 0.848 | 0.976 | 0.825 | 0.464 |  | 0.517 | 0.441 | 0.53 | 0.739 | 0.94 | 0.536 | 0.306
NCI-H1650 | 0.207 | 0.218 |  | 0.208 | 0.226 |  |  |  |  |  | 0.662 | 0.922 | 0.805 | 0.642 | 0.754 | 0.41 | 0.499 | 0.485 | 0.483
BEN | 0.347 | 0.461 | 0.282 | 0.442 | 0.303 | 0.819 | 0.849 | 0.924 | 1.01 | 0.865 | 0.974 | 1.25 | 1.24 | 1.03 | 1.02 | 0.567 | 0.619 | 0.606 | 0.617
EMC-BAC-2 | 1.16 | 1.15 | 1.22 | 1.24 | 1.13 | 0.764 | 0.835 | 0.794 | 0.806 | 0.804 | 0.486 | 0.513 | 0.472 | 0.389 | 0.435 | 0.431 | 0.465 | 0.439 | 0.659
NCI-H2170 | 0.793 | 0.762 | 0.718 | 0.661 | 0.629 |  |  |  |  |  | 0.59 | 0.573 | 0.619 | 0.601 | 0.539 | 0.856 | 0.89 | 0.999 | 0.816
NCI-H1299 |  |  |  |  |  | 0.876 | 1.02 | 0.97 | 0.918 | 0.942 | 1.03 | 0.926 | 1 | 0.96 | 0.923 |  |  |  | 
EBC-1 |  |  |  |  |  | 0.656 | 0.74 | 0.598 | 0.885 | 0.727 | 0.766 | 0.746 | 0.76 | 0.85 | 0.657 |  |  |  | 
NCI-H1648 |  |  |  |  |  |  |  |  |  |  | 0.866 | 1 | 1.03 | 0.909 | 0.826 | 0.351 |  | 0.672 | 0.509
NCI-H1792 | 0.47 |  | 0.394 | 0.446 | 0.439 | 0.534 | 0.503 | 0.393 | 0.52 | 0.535 | 0.434 |  | 0.365 | 0.374 | 0.399 |  |  |  | 
ChaGo-K-1 | 0.583 | 0.552 | 0.47 | 0.683 | 0.643 |  |  |  |  |  | 0.423 | 0.413 | 0.431 | 0.392 | 0.389 | 0.746 | 0.914 | 0.8 | 0.762
A549 |  |  |  |  |  | 0.561 | 0.554 | 0.525 | 0.679 | 0.635 | 0.409 | 0.32 | 0.251 | 0.535 | 0.317 |  |  |  | 
NCI-H1563 | 0.474 | 0.542 | 0.592 | 0.533 | 0.515 | 1.16 | 1.14 | 1.32 | 1.27 | 1.18 |  |  |  |  |  |  |  |  | 
NCI-H522 | 0.949 | 1.2 | 1.05 | 1.1 | 1.22 |  |  |  |  |  | 0.754 | 0.636 | 0.583 | 0.623 | 0.732 | 0.875 | 1 | 0.903 | 0.958
HCC-78 |  |  |  |  |  | 0.576 | 0.437 | 0.423 | 0.51 | 0.456 | 0.885 | 0.734 | 0.691 | 0.792 | 0.804 | 0.505 | 0.472 | 0.514 | 0.415
IA-LM |  |  |  |  |  | 0.318 | 0.559 | 0.413 | 0.443 | 0.432 | 0.776 | 0.956 | 0.937 | 0.931 | 0.686 | 1.08 | 0.512 | 1.07 | 1
NCI-H1703 |  |  |  |  |  | 0.67 | 0.515 |  | 0.721 | 0.612 | 0.52 | 0.446 |  | 0.571 | 0.349 |  |  |  | 
SW 900 | 0.166 | 0.165 |  | 0.185 | 0.19 |  |  |  |  |  | 0.783 | 0.875 |  | 0.798 | 0.772 | 0.357 | 0.458 | 0.377 | 0.576
